The first data set can be described thus: log p, n-octanol/water partition coefficient by reverse phase HPLC (H2O/CH3CN). Type of data set: physicochemical. To be noted: n-octanol/water, pH 2.3.
`CCOC(=O)Oc1ccc(-c2ccccc2)cc1Cl` [(2-Chloro-4-phenyl-phenyl) ethyl carbonate] yielded a chromatographic logP of 4.16.

The compound `CCCc1cc(-c2ccc(C(CCl)NC(=O)c3c(F)cccc3F)cc2)ccc1OC(C)=O` (stereo not shown) [VI-1, 2,6-Difluoro-N-[2-chloro-1-(4-(4-acetoxy-3-n-propylphenyl)phenyl)ethyl]-benzamide] displayed a chromatographic logP of 3.92. Still for that read-out and setting: with `CCCc1cc(-c2ccccc2)ccc1OC(=O)OCC` [(4-phenyl-2-propyl-phenyl) ethyl carbonate] the figure was 4.76.

Take `CCc1cc(-c2ccccc2)ccc1OC(C)=O` [4-acetoxy-3-ethyl-biphenyl]: the chromatographic logP is 3.92.

The same data set, now with this note: n-octanol/water, pH 7.5.
In the case of `CCCc1cc(-c2ccc(C3COC(c4c(F)cccc4F)=N3)cc2)ccc1O` (stereo not shown) [II-1, 2-(2,6-Difluorophenyl)-4-(4-(4-hydroxy-3-n-propylphenyl)phenyl)-2-oxazoline], the chromatographic logP was found to be 3.77.

Still in this data set, the particulars now being: pH 7.5.
In the case of `CCC(C)Oc1ccc(-c2ccc(C3COC(c4ccccc4F)=N3)cc2)cc1C` (stereo not shown) [Example I-192], the log p entry is “log p: 5.70”. Still for that read-out and setting: with `C=CCc1cc(-c2ccc(C3COC(c4ccccc4Br)=N3)cc2)ccc1OC(C)C` (stereo not shown) [Example I-291] the entry was “log p: 6.02”. As to `CCCc1cc(-c2ccc(C3COC(c4ccccc4F)=N3)cc2)ccc1OC(C)C` (stereo not shown) [Example I-202], the log p entry is “log p: 6.03”. The same measure, in the same setting: with `C#CC(C)Oc1ccc(-c2ccc(C3COC(c4ccccc4F)=N3)cc2)cc1Cl` (stereo not shown) [Example I-222] the entry was “log p: 4.58”. `CCCOc1ccc(-c2ccc(C3COC(c4ccccc4F)=N3)cc2)cc1Cl` (stereo not shown) [Example I-216]: the log p entry is given as “log p: 5.22”.

Regarding `Cc1cc(-c2ccc(C3COC(c4c(F)cccc4F)=N3)cc2)cc(C)c1OC(C)C` (stereo not shown) [Example I-44], the log p result is on record as “log p: 5.23 (pH 7.5)”. For `C#CCOc1ccc(-c2ccc(C3COC(c4ccccc4F)=N3)cc2)cc1Cl` (stereo not shown) [Example I-221], the log p entry is “log p: 4.16”.

For the compound `CCCc1cc(-c2ccc(C3COC(c4c(F)cccc4Cl)=N3)cc2)ccc1OC(C)C` (stereo not shown) [Example I-85], the log p result is on record as “log p: 6.20 (pH 7.5)”. Still for that read-out and setting: as for `CCCc1cc(-c2ccc(C3COC(c4ccccc4I)=N3)cc2)ccc1OC(C)C` (stereo not shown) [Example I-57], the entry is “log p: 6.59 (pH 7.5)”; as for `C#CCOc1ccc(-c2ccc(C3COC(c4ccccc4C)=N3)cc2)cc1Cl` (stereo not shown) [Example I-156], “log p: 4.81 (pH 7.5)”.

Consider `C=CCOc1c(Cl)cc(-c2ccc(C3COC(c4ccccc4Br)=N3)cc2)cc1CC=C` (stereo not shown) [Example I-283], for which the log p result was “log p: 6.05”. Still for that read-out and setting: with `C=CCc1cc(-c2ccc(C3COC(c4c(F)cccc4Cl)=N3)cc2)ccc1OCCC` (stereo not shown) [Example I-176] the entry was “log p: 5.98”; with `C=CCc1cc(-c2ccc(C3COC(c4c(F)cccc4F)=N3)cc2)cc(C)c1O` (stereo not shown) [II-12], “log p: 3.83”; with `CCC(C)Oc1ccc(-c2ccc(C3COC(c4c(F)cccc4F)=N3)cc2)cc1C` (stereo not shown) [Example I-7], “log p*: 5.60 (pH = 7.5)”.

Consider `Cc1cc(-c2ccc(C3COC(c4ccccc4Cl)=N3)cc2)ccc1OC(C)C` (stereo not shown) [Example I-12], for which the log p entry is “log p: 5.56 (pH = 7.5)”. Consider `C#CC(C)Oc1ccc(-c2ccc(C3COC(c4ccccc4F)=N3)cc2)cc1CCC` (stereo not shown) [Example I-209], for which the log p result was “log p: 5.32”. Still for that read-out and setting: as for `CC(C)COc1ccc(-c2ccc(C3COC(c4ccccc4F)=N3)cc2)cc1Cl` (stereo not shown) [Example I-90], the entry is “log p: 5.70 (pH 7.5)”; as for `C=CCOc1ccc(-c2ccc(C3COC(c4ccccc4Br)=N3)cc2)cc1CC=C` (stereo not shown) [Example I-293], “log p: 5.66”.

Consider `C=CCc1cc(-c2ccc(C3COC(c4ccccc4Br)=N3)cc2)cc(Cl)c1OCCCCCC` (stereo not shown) [Example I-282], for which the log p entry is on record as “log p: 7.36”. On to `CCCCCCOc1ccc(-c2ccc(C3COC(c4ccccc4F)=N3)cc2)cc1Cl` (stereo not shown) [Example I-219], for which the log p result is listed as “log p: 6.48”.

As to `C=CCc1cc(-c2ccc(C3COC(c4c(F)cccc4Cl)=N3)cc2)ccc1OC(C)CC` (stereo not shown) [Example I-179], the log p result is recorded as “log p: 6.33”. Still for that read-out and setting: with `CCCc1cc(-c2ccc(C3COC(c4c(F)cccc4F)=N3)cc2)ccc1OCc1ccc(C(C)(C)C)cc1` (stereo not shown) [Example I-60] the entry was “log p: 7.14 (pH 7.5)”; with `C=CCc1cc(-c2ccc(C3COC(c4c(F)cccc4Cl)=N3)cc2)ccc1OC(C)C` (stereo not shown) [Example I-177], “log p: 5.82”; with `CCCc1cc(-c2ccc(C3COC(c4ccccc4C)=N3)cc2)ccc1OC(C)CC` (stereo not shown) [Example I-9], “log p: 7.28 (pH = 7.5)”. Same read-out and setting: with `CC(C)Oc1ccc(-c2ccc(C3COC(c4ccccc4Br)=N3)cc2)cc1Cl` (stereo not shown) [Example I-302] the entry was “log p: 5.42”. `C=CCOc1ccc(-c2ccc(C3COC(c4ccccc4C)=N3)cc2)cc1C` (stereo not shown) [Example I-55]: the log p result is on record as “log p: 5.64 (pH 7.5)”. Regarding `C=CCc1cc(-c2ccc(C3COC(c4ccccc4Br)=N3)cc2)cc(Cl)c1OC(C)C` (stereo not shown) [Example I-281], the log p entry is recorded as “log p: 6.35”. Still for that read-out and setting: with `CCC(C)Oc1ccc(-c2ccc(C3COC(c4c(F)cccc4Cl)=N3)cc2)cc1C` (stereo not shown) [Example I-165] the entry was “log p: 5.93”; with `CCc1cc(-c2ccc(C3COC(c4c(F)cccc4F)=N3)cc2)ccc1O` (stereo not shown) [II-24], “log p: 3.42”; with `Cc1cc(-c2ccc(C3COC(c4ccccc4C)=N3)cc2)ccc1OC(C)C` (stereo not shown) [Example I-70], “log p: 6.02 (pH 7.5)”. Same read-out and setting: with `C=CCc1cc(-c2ccc(C3COC(c4ccccc4Cl)=N3)cc2)cc(C)c1O` (stereo not shown) [II-19] the entry was “log p: 4.14”; with `Cc1cc(-c2ccc(C3COC(c4ccccc4Cl)=N3)cc2)ccc1OC(C)C` (stereo not shown) [Example I-229], “log p: 5.56”; with `CCCCCCOc1ccc(-c2ccc(C3COC(c4c(F)cccc4Cl)=N3)cc2)cc1Cl` (stereo not shown) [Example I-83], “log p: 6.68 (pH 7.5)”.

Consider `CCCCCCOc1ccc(-c2ccc(C3COC(c4ccccc4F)=N3)cc2)cc1Cl` (stereo not shown) [Example I-96], for which the log p result was “log p: 6.48 (pH 7.5)”.

As for `C=CCOc1ccc(-c2ccc(C3COC(c4ccccc4C)=N3)cc2)cc1Cl` (stereo not shown) [Example I-155], the log p result is reported as “log p: 5.47 (pH 7.5)”. Still for that read-out and setting: as for `C=CCc1cc(-c2ccc(C3COC(c4ccccc4Cl)=N3)cc2)ccc1OCC(C)C` (stereo not shown) [Example I-251], the entry is “log p: 6.52”; as for `C=CCc1cc(-c2ccc(C3COC(c4c(F)cccc4Cl)=N3)cc2)ccc1OCC(C)C` (stereo not shown) [Example I-178], “log p: 6.47”. Still for that read-out and setting: as for `C#CCOc1c(Cl)cc(-c2ccc(C3COC(c4ccccc4Br)=N3)cc2)cc1CC=C` (stereo not shown) [Example I-284], the entry is “log p: 5.37”. Turning to `CCC(C)Oc1ccc(-c2ccc(C3COC(c4ccccc4F)=N3)cc2)cc1Cl` (stereo not shown) [Example I-89], the log p entry is listed as “log p: 5.49 (pH 7.5)”. Turning to `C=CCc1cc(-c2ccc(C3COC(c4ccccc4Br)=N3)cc2)cc(Cl)c1O` (stereo not shown) [II-21], the log p result is given as “log p: 4.42”.

With `Cc1cc(-c2ccc(C3COC(c4ccccc4F)=N3)cc2)ccc1OCC(C)C` (stereo not shown) [Example I-191], the log p result is on record as “log p: 5.89”. On the same count and under the same terms, with `C=CCc1cc(-c2ccc(C3COC(c4ccccc4Cl)=N3)cc2)ccc1OC(C)C` (stereo not shown) [Example I-250] the entry was “log p: 5.93”; with `C=CCOc1ccc(-c2ccc(C3COC(c4c(F)cccc4Cl)=N3)cc2)cc1Cl` (stereo not shown) [Example I-80], “log p: 4.99 (pH 7.5)”; with `CCCc1cc(-c2ccc(C3COC(c4ccccc4C)=N3)cc2)ccc1OCC(C)C` (stereo not shown) [Example I-64], “log p: 4.48 (pH 7.5)”.

In the case of `CCCc1cc(-c2ccc(C3COC(c4ccccc4Cl)=N3)cc2)ccc1OCC(C)C` (stereo not shown) [Example I-37], the log p result is on record as “log p: 6.95 (pH 7.5)”. Same read-out and setting: as for `CCCc1cc(-c2ccc(C3COC(c4c(F)cccc4F)=N3)cc2)ccc1OC(C)CC` (stereo not shown) [Example I-10], the entry is “log p: 6.33 (pH = 7.5)”; as for `C=CCc1cc(-c2ccc(C3COC(c4ccccc4C)=N3)cc2)cc(Cl)c1O` (stereo not shown) [II-14], “log p: 4.75”. With `CCCc1cc(-c2ccc(C3COC(c4c(F)cccc4Cl)=N3)cc2)ccc1OCC(C)C` (stereo not shown) [Example I-104], the log p entry was “log p: 6.82 (pH 7.5)”.

Take `CCCc1cc(-c2ccc(C3COC(c4ccccc4C)=N3)cc2)ccc1OC(C)C` (stereo not shown) [Example I-52]: the log p entry is “log p: 6.78 (pH 7.5)”.

For the compound `CCCc1cc(-c2ccc(C3COC(c4ccccc4Cl)=N3)cc2)ccc1OCC(C)O` (stereo not shown) [Example I-39], the log p entry is “log p: 4.47 (pH 7.5)”. As to `CCCc1cc(-c2ccc(C3COC(c4ccccc4F)=N3)cc2)ccc1OCC(C)C` (stereo not shown) [Example I-204], the log p entry is “log p: 6.61”. Take `C#CC(C)Oc1ccc(-c2ccc(C3COC(c4ccccc4F)=N3)cc2)cc1C` (stereo not shown) [Example I-196]: the log p result is on record as “log p: 4.68”. On to `CCC(C)Oc1ccc(-c2ccc(C3COC(c4c(F)cccc4Cl)=N3)cc2)cc1Cl` (stereo not shown) [Example I-76], for which the log p result is “log p: 5.69 (pH 7.5)”.

Take `Cc1cc(-c2ccc(C3COC(c4ccccc4Br)=N3)cc2)ccc1OC(C)C` (stereo not shown) [Example I-14]: the log p result is “log p: 5.63 (pH = 7.5)”.

On to `C#CCOc1ccc(-c2ccc(C3COC(c4c(F)cccc4Cl)=N3)cc2)cc1CC=C` (stereo not shown) [Example I-182], for which the log p result is listed as “log p: 4.81”. Take `CCc1cc(-c2ccc(C3COC(c4c(F)cccc4F)=N3)cc2)ccc1OC(C)C` (stereo not shown) [Example I-63]: the log p entry is on record as “log p: 5.54 (pH 7.5)”. On the same count and under the same terms, as for `Cc1cc(-c2ccc(C3COC(c4ccccc4F)=N3)cc2)ccc1OC(C)C` (stereo not shown) [Example I-190], the entry is “log p: 5.23”; as for `CCC(C)Oc1ccc(-c2ccc(C3COC(c4ccccc4Br)=N3)cc2)cc1C` (stereo not shown) [Example I-16], “log p: 6.12 (pH = 7.5)”. Still for that read-out and setting: with `CCCOc1ccc(-c2ccc(C3COC(c4ccccc4F)=N3)cc2)cc1Cl` (stereo not shown) [Example I-87] the entry was “log p: 5.22 (pH 7.5)”. On the same count and under the same terms, with `Cc1cc(-c2ccc(C3COC(c4ccccc4I)=N3)cc2)ccc1OC(C)C` (stereo not shown) [Example I-67] the entry was “log p: 5.81 (pH 7.5)”; with `C=CCOc1ccc(-c2ccc(C3COC(c4ccccc4Br)=N3)cc2)cc1Cl` (stereo not shown) [Example I-304], “log p: 5.13”. In the case of `CCC(C)Oc1ccc(-c2ccc(C3COC(c4ccccc4F)=N3)cc2)cc1Cl` (stereo not shown) [Example I-218], the log p result is given as “log p: 5.49”.

One may read the chromatographic logP as a lipophilicity value derived from retention on a column. Read a high chromatographic logP as higher lipophilicity.

The values above are taken from patent US6410581B1, “Disubstituted biphenyloxazolines” (Bayer Aktiengesellschaft, priority 1997, dated 2002).
